“And” between values parts separate entries of the source, which are not always exact repeats. Equal entries are not always repeated.
What was measured:
[1] = target: T1, HRHN-GAL (yeast GAL4 DNA binding domain without receptor sequences) (Saccharomyces cerevisiae, UniProt P04386); assay: GAL4 reporter transactivation assay in CV-1 cells, control vector without receptor; type: cell-based, monkey; conditions: for Fold activation, HRHN-GAL: reporter 0.42:vector 0.00875, no PGC-1a
T1 construct: expressed in transfected cells; host or cells: CV-1
T1 sequence (P04386 1-147): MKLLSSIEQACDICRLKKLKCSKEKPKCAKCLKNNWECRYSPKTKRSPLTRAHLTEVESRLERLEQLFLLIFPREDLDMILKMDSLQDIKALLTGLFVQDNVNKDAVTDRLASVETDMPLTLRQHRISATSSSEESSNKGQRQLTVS

[2] = target: T2, GAL-hERRa (human ERRα ligand binding domain fused to GAL4 DNA binding domain) (Homo sapiens, UniProt P11474); assay: GAL4 reporter transactivation assay in CV-1 cells, GAL-hERRa; type: cell-based; conditions: for Fold activation, GAL-hERRa + PGC-1a / Fold activation, GAL-hERRa / Fold activation, Receptor ERRα: CV-1; for Fold activation, GAL-hERRa + PGC-1a: reporter 0.42:vector 0.00875:PGC-1a 0.035; for Fold activation, GAL-hERRa: reporter 0.42:vector 0.00875, no PGC-1a; for Fold activation, Receptor ERRα: Table 1, reporter 0.42:receptor vector 0.035:PGC-1a 0.035
T2 construct: expressed in transfected cells; host or cells: CV-1
T2 sequence (P11474 193-421 limits assumed): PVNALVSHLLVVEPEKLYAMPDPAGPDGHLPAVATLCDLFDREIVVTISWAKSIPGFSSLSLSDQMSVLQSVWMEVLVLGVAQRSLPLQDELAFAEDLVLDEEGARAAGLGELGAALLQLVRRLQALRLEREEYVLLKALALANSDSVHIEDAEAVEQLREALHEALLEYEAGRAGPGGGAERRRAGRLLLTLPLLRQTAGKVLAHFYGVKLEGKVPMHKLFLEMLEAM

[3] = target: T3, GAL-L-hERRb (human ERRβ ligand binding domain fused to GAL4 DNA binding domain) (Homo sapiens, UniProt O95718); assay: GAL4 reporter transactivation assay in CV-1 cells, GAL-L-hERRb; type: cell-based; conditions: for Fold activation, GAL-L-hERRb + PGC-1a / Fold activation, GAL-L-hERRb / Fold activation, Receptor ERRβ: CV-1; for Fold activation, GAL-L-hERRb + PGC-1a: reporter 0.42:vector 0.00875:PGC-1a 0.035; for Fold activation, GAL-L-hERRb: reporter 0.42:vector 0.00875, no PGC-1a; for Fold activation, Receptor ERRβ: Table 1, reporter 0.42:receptor vector 0.035:PGC-1a 0.035
T3 construct: expressed in transfected cells; host or cells: CV-1
T3 sequence (O95718 208-432 limits assumed): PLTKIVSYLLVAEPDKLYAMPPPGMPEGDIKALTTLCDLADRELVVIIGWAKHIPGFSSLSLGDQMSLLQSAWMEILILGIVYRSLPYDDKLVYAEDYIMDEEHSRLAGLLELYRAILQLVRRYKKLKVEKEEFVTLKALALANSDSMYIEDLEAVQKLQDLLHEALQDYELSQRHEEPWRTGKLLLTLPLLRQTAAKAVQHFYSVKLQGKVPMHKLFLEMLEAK

[4] = target: T4, GAL-mERRg (mouse ERRγ ligand binding domain fused to GAL4 DNA binding domain) (Mus musculus, UniProt P62509); assay: GAL4 reporter transactivation assay in CV-1 cells, GAL-mERRg; type: cell-based; conditions: for Fold activation, GAL-mERRg + PGC-1a / Fold activation, GAL-mERRg / Fold activation, Receptor ERRγ: CV-1; for Fold activation, GAL-mERRg + PGC-1a: reporter 0.42:vector 0.00875:PGC-1a 0.035; for Fold activation, GAL-mERRg: reporter 0.42:vector 0.00875, no PGC-1a; for Fold activation, Receptor ERRγ: Table 1, reporter 0.42:receptor vector 0.035:PGC-1a 0.035
T4 construct: expressed in transfected cells; host or cells: CV-1
T4 sequence (P62509 233-457 limits assumed): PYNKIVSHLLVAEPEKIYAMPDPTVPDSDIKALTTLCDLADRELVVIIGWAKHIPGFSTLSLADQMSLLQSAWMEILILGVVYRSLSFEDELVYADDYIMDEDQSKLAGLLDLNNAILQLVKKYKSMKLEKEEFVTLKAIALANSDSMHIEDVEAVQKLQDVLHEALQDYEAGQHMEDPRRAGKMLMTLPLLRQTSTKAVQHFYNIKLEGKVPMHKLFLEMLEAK

human ERβ = target: T5, human ERβ (Homo sapiens, UniProt Q92731); assay: ERE-TK-luc reporter transactivation assay in CV-1 cells, full-length hERb; type: cell-based; conditions: for Fold activation, Receptor ERRβ: Table 1 second block
T5 construct: Human ERα and ERβ were examined as full-length proteins using an estrogen receptor responsive reporter construct; expressed in transfected cells; host or cells: CV-1
T5 sequence (Q92731 whole entry): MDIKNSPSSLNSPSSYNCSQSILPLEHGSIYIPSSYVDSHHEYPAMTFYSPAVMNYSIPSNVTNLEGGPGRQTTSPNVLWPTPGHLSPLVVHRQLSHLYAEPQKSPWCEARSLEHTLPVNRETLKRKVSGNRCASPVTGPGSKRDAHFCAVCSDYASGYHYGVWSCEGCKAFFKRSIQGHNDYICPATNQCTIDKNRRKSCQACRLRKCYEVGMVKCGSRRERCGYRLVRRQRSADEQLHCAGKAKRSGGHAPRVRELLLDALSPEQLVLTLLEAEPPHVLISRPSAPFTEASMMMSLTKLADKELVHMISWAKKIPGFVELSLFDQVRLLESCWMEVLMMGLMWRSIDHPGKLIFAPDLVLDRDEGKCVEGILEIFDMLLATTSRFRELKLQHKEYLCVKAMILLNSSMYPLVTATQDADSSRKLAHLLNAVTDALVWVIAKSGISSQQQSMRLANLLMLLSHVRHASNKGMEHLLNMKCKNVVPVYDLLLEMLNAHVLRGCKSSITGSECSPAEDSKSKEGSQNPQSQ
Protocol: Human ERα and ERβ were examined as full-length proteins using an estrogen receptor responsive reporter construct.
Suitable reporter gene constructs are well known to skilled workers in the fields of biochemistry and molecular biology. […] Other vectors known in the art can be used in the methods of the present invention.
CV-1 cells for the activation assays were grown in Dulbecco's modified Eagle's medium supplemented with 10% resin charcoal-stripped fetal bovine serum, 50 U/ml penicillin G and 50 μg/ml streptomycin sulfate (DMEM-FBS) at 37° C. in 5% CO2. One day prior to transfection, cells were plated to 50-80% confluence using phenol red free DMEM-FBS.

Fold activation, Receptor — (first block) ([1]; Table 1, reporter 0.42:receptor vector 0.035:PGC-1a 0.035, 3 μM): 0.8 fold
Fold activation, Receptor — (first block) ([1]; Table 1, reporter 0.42:receptor vector 0.035:PGC-1a 0.035, 10 μM): 0.7 fold
Fold activation, Receptor — (first block) ([1]; Table 1, reporter 0.42:receptor vector 0.035:PGC-1a 0.035, 30 μM): 0.9 fold
Fold activation, HRHN-GAL ([1]; 0.3 μM): 1.03 fold
Fold activation, HRHN-GAL ([1]; 1 μM): 0.94 fold
Fold activation, HRHN-GAL ([1]; 3 μM (first 3 μM column)): 0.74 fold
Fold activation, HRHN-GAL ([1]; 3 μM (second 3 μM column)): 0.74 fold
Fold activation, HRHN-GAL ([1]; 10 μM): 0.77 fold
Fold activation, HRHN-GAL ([1]; 30 μM): 0.79 fold
Fold activation, HRHN-GAL + PGC-1a ([1]; reporter 0.42:vector 0.00875:PGC-1a 0.035, 0.3 μM): 1.00 fold
Fold activation, HRHN-GAL + PGC-1a ([1]; reporter 0.42:vector 0.00875:PGC-1a 0.035, 1 μM): 0.65 fold
Fold activation, HRHN-GAL + PGC-1a ([1]; reporter 0.42:vector 0.00875:PGC-1a 0.035, 3 μM (first 3 μM column)): 0.72 fold
Fold activation, HRHN-GAL + PGC-1a ([1]; reporter 0.42:vector 0.00875:PGC-1a 0.035, 3 μM (second 3 μM column)): 1.09 fold
Fold activation, HRHN-GAL + PGC-1a ([1]; reporter 0.42:vector 0.00875:PGC-1a 0.035, 10 μM): 0.69 fold
Fold activation, HRHN-GAL + PGC-1a ([1]; reporter 0.42:vector 0.00875:PGC-1a 0.035, 30 μM): 0.81 fold
Fold activation, GAL-hERRa + PGC-1a ([2]; 0.3 μM): 1.69 fold
Fold activation, GAL-hERRa + PGC-1a ([2]; 1 μM): 2.07 fold
Fold activation, GAL-hERRa + PGC-1a ([2]; 3 μM (first 3 μM column)): 2.43 fold
Fold activation, GAL-hERRa + PGC-1a ([2]; 3 μM (second 3 μM column)): 2.47 fold
Fold activation, GAL-hERRa + PGC-1a ([2]; 10 μM): 3.75 fold
Fold activation, GAL-hERRa + PGC-1a ([2]; 30 μM): 3.31 fold
Fold activation, GAL-hERRa ([2]; 0.3 μM): 1.10 fold
Fold activation, GAL-hERRa ([2]; 1 μM): 0.96 fold
Fold activation, GAL-hERRa ([2]; 3 μM (first 3 μM column)): 1.55 fold
Fold activation, GAL-hERRa ([2]; 3 μM (second 3 μM column)): 1.57 fold
Fold activation, GAL-hERRa ([2]; 10 μM): 1.44 fold
Fold activation, GAL-hERRa ([2]; 30 μM): 1.87 fold
Fold activation, Receptor ERRα ([2]; 3 μM): 1.5 fold
Fold activation, Receptor ERRα ([2]; 10 μM): 1.7 fold
Fold activation, Receptor ERRα ([2]; 30 μM): 1.6 fold
Activation of the reporter construct for ERRα ([2]; Table 1 conditions (reporter:Gal-ERR:PGC-1a=0.4:0.035:0.035), any of the concentrations tested): failed to activate
Activation of the reporter construct for ERRα ([2]; different assay conditions (reporter plasmid:Gal-ERR:PGC-1a=0.4:0.00875:0.035), Table 2): activated
Activation of ERRα ([2]; in the presence of PGC-1a): can activate
Fold activation, GAL-L-hERRb + PGC-1a ([3]; 0.3 μM): 1.27 fold
Fold activation, GAL-L-hERRb + PGC-1a ([3]; 1 μM): 1.19 fold
Fold activation, GAL-L-hERRb + PGC-1a ([3]; 3 μM (first 3 μM column)): 1.80 fold
Fold activation, GAL-L-hERRb + PGC-1a ([3]; 3 μM (second 3 μM column)): 2.02 fold
Fold activation, GAL-L-hERRb + PGC-1a ([3]; 10 μM): 2.45 fold
Fold activation, GAL-L-hERRb + PGC-1a ([3]; 30 μM): 2.52 fold
Fold activation, GAL-L-hERRb ([3]; 0.3 μM): 0.84 fold
Fold activation, GAL-L-hERRb ([3]; 1 μM): 1.05 fold
Fold activation, GAL-L-hERRb ([3]; 3 μM (first 3 μM column)): 1.26 fold
Fold activation, GAL-L-hERRb ([3]; 3 μM (second 3 μM column)): 1.15 fold
Fold activation, GAL-L-hERRb ([3]; 10 μM): 2.14 fold
Fold activation, GAL-L-hERRb ([3]; 30 μM): 2.46 fold
Fold activation, Receptor ERRβ ([3]; 3 μM): 1.9 fold
Fold activation, Receptor ERRβ ([3]; 10 μM): 3.1 fold
Fold activation, Receptor ERRβ ([3]; 30 μM): 3.8 fold
Fold activation of ERRβ ([3]; Table 1 conditions, concentrations of 10-30 μM): 3-4 fold
Activation of ERRβ ([3]; in the presence of PGC-1a): can activate
Fold activation, GAL-mERRg + PGC-1a ([4]; 0.3 μM): 1.38 fold
Fold activation, GAL-mERRg + PGC-1a ([4]; 1 μM): 1.59 fold
Fold activation, GAL-mERRg + PGC-1a ([4]; 3 μM (first 3 μM column)): 2.65 fold
Fold activation, GAL-mERRg + PGC-1a ([4]; 3 μM (second 3 μM column)): 2.29 fold
Fold activation, GAL-mERRg + PGC-1a ([4]; 10 μM): 2.82 fold
Fold activation, GAL-mERRg + PGC-1a ([4]; 30 μM): 3.09 fold
Fold activation, GAL-mERRg ([4]; 0.3 μM): 0.87 fold
Fold activation, GAL-mERRg ([4]; 1 μM): 0.92 fold
Fold activation, GAL-mERRg ([4]; 3 μM (first 3 μM column)): 1.26 fold
Fold activation, GAL-mERRg ([4]; 3 μM (second 3 μM column)): 1.70 fold
Fold activation, GAL-mERRg ([4]; 10 μM): 1.49 fold
Fold activation, GAL-mERRg ([4]; 30 μM): 1.91 fold
Fold activation, Receptor ERRγ ([4]; 3 μM): 5 fold and 5.0 fold
Fold activation, Receptor ERRγ ([4]; 10 μM): 5.9 fold
Fold activation, Receptor ERRγ ([4]; 30 μM): 6.6 fold
Activation of ERRγ ([4]; in the presence of PGC-1a): can activate
Activity on ERβ (activate or inhibit) (human ERβ; CV-1 reporter assay): failed to activate or inhibit
Fold activation, Receptor ERRβ (human ERβ; CV-1, 3 μM): 1.1 fold
Fold activation, Receptor ERRβ (human ERβ; CV-1, 10 μM): 1.0 fold
Fold activation, Receptor ERRβ (human ERβ; CV-1, 30 μM): 1.2 fold
Fold Activation, ERE-TK-luc, hERb (human ERβ; Table 7, CV-1, drug conc 30 μM): 1.19 fold
Activation of ERb (human ERβ; specificity for ERRs): do not activate
Structure (SMILES): CCN(CC)c1ccc(C=NNC(=O)c2ccc(O)cc2)cc1 [DY131, 4-Hydroxy-benzoic acid (4-diethylamino-benzylidene)-hydrazide]
